Laboratory results taken from paper PMC9948168, “Vanillin-Based Indolin-2-one Derivative Bearing a Pyridyl Moiety as a Promising Anti-Breast Cancer Agent via Anti-Estrogenic Activity” (ACS Omega, 2023).
Read-outs that look alike come from different tables or passages of the source.

Key:
Type in all cases: cell-based, human
[1] = iCELLigence real-time cell analysis; conditions: human, MCF-12A, relative to control, read-out: cell viability (% ± SEM)
Method: (§1) Therefore, compound 6j was applied in serial doses (2, 5, 10, 20, 50, and 100 μM) to MCF-7 cells and parallel to MCF-12A cells to determine the selectivity and safety. The treatments were performed 24 h after seeding the cells on system-specific biosensor-based plates. A total of 120 h of analyses were monitored, with cell viability measurements taken every 15 min. […] In addition, the viability percentage values for each dose in these periods were calculated and are summarized in Table 3 for MCF-7 and Table 4 for MCF-12A. […] In these treatments, cells were not killed dramatically after adding the highest two doses of 6j (100 and 50 μM); instead, they entered the stationary phase.
(§2) MCF-7 (Cat. no. HTB-22) (human estrogen receptor-positive breast cancer) and MCF-12A (Cat. no. CRL-10782) (human non-tumorigenic mammary epithelial) cell lines were obtained from the American Type Culture Collection (ATCC, Rockville, Maryland, USA). MCF-7 cells were maintained in Dulbecco’s modified Eagle’s medium (DMEM) (Biological Industries, Haemek, Israel) supplemented with 10% heat-inactivated fetal bovine serum (FBS) (Biowest, Nuaillé, France), 2 mM L-glutamine (Biological Industries, Haemek, Israel), 100 U/mL penicillin and 100 μg/mL streptomycin (Gibco, Waltham, MA, USA), and 2.5 μg/mL plasmocin (Invivogen, Toulouse, France) at 37 °C in a 5% CO2 humidified incubator. MCF-12A cells were cultured in a DMEM/F-12 Nutrient Mixture (Ham) (DMEM/F12 1:1 with HEPES and L-glutamine) (Gibco, Waltham, MA, USA) with 10% heat-inactivated FBS, 100 U/mL penicillin, 100 μg/mL streptomycin, and 10 μg/mL insulin (Humulin R, Lilly, Indianapolis, USA), 20 ng/mL epidermal growth factor (Abcam, Cambridge, UK), […] hydrocortisone (Dekort, Deva Ilac, Istanbul, Turkey), and 2.5 μg/mL plasmocin in a humidified atmosphere of 5% CO2 at 37 °C. The cells were routinely cultured in cell culture flasks and checked regularly under an inverted microscope. Cells reaching 80% confluency were passaged by treatment with 0.25% trypsin–EDTA. Total cell numbers were counted by the trypan blue dye exclusion method using a hemocytometer prior to the experiments.
(§3) The iCELLigence real-time cell analysis system was used to conduct a real-time and label-free examination of the activities of compound 6j on cells as we previously described.[62] In brief, following a background measurement with 200 μL of complete medium on iCELLigence E-plate L8, 100 μL of MCF-7 or MCF-12A cells was seeded at a density of 5.0 × 10^3 per well. During the 120 h monitoring, the system took impedance measurements via biosensors every 15 min. At the 24th h of incubation, the cells were treated with increasing concentrations of the 6j compound (2, 5, 10, 20, 50, and 100 μM) in duplicate. For cell culture experiments, compound 6j was dissolved in DMSO (Sigma, St. Louis, USA) at a stock concentration of 20 mM. For treatments, dilutions were prepared from 20 mM stock with a cell growth medium, with a final DMSO concentration of 0.1%. The medium containing 0.1% DMSO was also used as a negative control. […] Data were recorded by the iCELLigence software for 120 h and analyzed at the end of the study.

MCF-12A cells = assay: iCELLigence real-time cell analysis; conditions: for IC50: Homo sapiens, MCF-12A
Method: as §1, §2, §3

MCF-7 cells = assay: iCELLigence real-time cell analysis; conditions: for viability at 2 µM / viability at 5 µM / viability at 10 µM / viability at 20 µM / viability at 50 µM / viability at 100 µM / IC50: MCF-7; for viability at 2 µM / viability at 5 µM / viability at 10 µM / viability at 20 µM / viability at 50 µM / viability at 100 µM: relative to control, read-out: cell viability (% ± SEM)
Method: as §1, §2, §3

Q: With `COc1cc(C=C2C(=O)Nc3ccc(Cl)cc32)ccc1OCc1ccccn1` (mixture of isomers) [6j] as the compound, how does the viability at 48 h, 2 µM ([1]; MCF-12A cells (non-tumorigenic mammary epithelial), 2 μM, 48 h) read?
A: 97.43 ± 0.02%

Q: And the viability at 72 h, 2 µM ([1]; MCF-12A cells (non-tumorigenic mammary epithelial), 2 μM, 72 h)?
A: 97.43 ± 0.02%

Q: What about the viability at 96 h, 2 µM ([1]; MCF-12A cells (non-tumorigenic mammary epithelial), 2 μM, 96 h) of the same compound?
A: 97.43 ± 0.02%

Q: And the viability at 72 h, 5 µM ([1]; MCF-12A cells (non-tumorigenic mammary epithelial), 5 μM, 72 h)?
A: 92.74 ± 0.01%

Q: And the viability at 96 h, 5 µM ([1]; MCF-12A cells (non-tumorigenic mammary epithelial), 5 μM, 96 h)?
A: 92.2%

Q: And the viability at 72 h, 10 µM ([1]; MCF-12A cells (non-tumorigenic mammary epithelial), 10 μM, 72 h)?
A: 87.93 ± 0.02%

Q: And the viability at 96 h, 10 µM ([1]; MCF-12A cells (non-tumorigenic mammary epithelial), 10 μM, 96 h)?
A: 87.93 ± 0.02%

Q: What about the viability at 72 h, 20 µM ([1]; MCF-12A cells (non-tumorigenic mammary epithelial), 20 μM, 72 h) of the same compound?
A: 80.57 ± 0.01%

Q: What about the viability at 96 h, 20 µM ([1]; MCF-12A cells (non-tumorigenic mammary epithelial), 20 μM, 96 h) of the same compound?
A: 80.57 ± 0.01%

Q: What about the viability at 72 h, 50 µM ([1]; MCF-12A cells (non-tumorigenic mammary epithelial), 50 μM, 72 h) of the same compound?
A: 72.7 ± 0.01%

Q: And the viability at 96 h, 50 µM ([1]; MCF-12A cells (non-tumorigenic mammary epithelial), 50 μM, 96 h)?
A: 72.54 ± 0.01%

Q: What about the viability at 72 h, 100 µM ([1]; MCF-12A cells (non-tumorigenic mammary epithelial), 100 μM, 72 h) of the same compound?
A: 62.63 ± 0.01%

Q: And the viability at 96 h, 100 µM ([1]; MCF-12A cells (non-tumorigenic mammary epithelial), 100 μM, 96 h)?
A: 61.3%

Q: What about the viability at 24 h, 2 µM ([1]; MCF-12A cells, 2 μM, 24 h) of the same compound?
A: 98.7%

Q: And the viability at 24 h, 5 µM ([1]; MCF-12A cells, 5 μM, 24 h)?
A: 99.06 ± 0.01%

Q: What about the viability at 48 h, 5 µM ([1]; MCF-12A cells, 5 μM, 48 h) of the same compound?
A: 93.73 ± 0.02%

Q: What about the viability at 24 h, 10 µM ([1]; MCF-12A cells, 10 μM, 24 h) of the same compound?
A: 97.22 ± 0.01%

Q: What about the viability at 48 h, 10 µM ([1]; MCF-12A cells, 10 μM, 48 h) of the same compound?
A: 88.48 ± 0.02%

Q: And the viability at 24 h, 20 µM ([1]; MCF-12A cells, 20 μM, 24 h)?
A: 93.6%

Q: And the viability at 48 h, 20 µM ([1]; MCF-12A cells, 20 μM, 48 h)?
A: 81.96 ± 0.01%

Q: And the viability at 24 h, 50 µM ([1]; MCF-12A cells, 50 μM, 24 h)?
A: 90.25 ± 0.01%

Q: What about the viability at 48 h, 50 µM ([1]; MCF-12A cells, 50 μM, 48 h) of the same compound?
A: 77.81 ± 0.01%

Q: And the viability at 24 h, 100 µM ([1]; MCF-12A cells, 100 μM, 24 h)?
A: 82%

Q: And the viability at 48 h, 100 µM ([1]; MCF-12A cells, 100 μM, 48 h)?
A: 67.3%

Q: What about the IC50 (MCF-12A cells; 24 h after treatment) of the same compound?
A: 506 µM

Q: What about the IC50 (MCF-12A cells; 48 h after treatment) of the same compound?
A: 81.9 µM

Q: And the IC50 (MCF-12A cells; 72 h after treatment)?
A: 312 µM

Q: And the IC50 (MCF-12A cells; 96 h after treatment)?
A: 207 µM

Q: What about the “safer profile MCF-12A versus MCF-7” value (MCF-12A cells; at the 48th h, based on IC50 values) of the same compound?
A: 5 times

Q: And the “effects on MCF-12A healthy breast cells” value (MCF-12A cells; first 24 h of treatment, any dose (2-100 μM))?
A: no effects

Q: And the “inhibition of MCF-7 viability” value (MCF-7 cells; 20 μM, compared with same concentration of tamoxifen)?
A: 30%

Q: What about the “growth of MCF-7 cells” value (MCF-7 cells; 100 and 50 μM, all time points) of the same compound?
A: completely inhibited the growth

Q: What about the inhibition at 10 µM (MCF-7 cells; Homo sapiens, MCF7, 10 μM, from growth curves) of the same compound?
A: 25%

Q: What about the inhibition at 20 µM (MCF-7 cells; Homo sapiens, MCF7, 20 μM, all time points, from growth curves) of the same compound?
A: ~50%

Q: And the viability at 2 µM (MCF-7 cells; Homo sapiens, MCF7, 24 h)?
A: 91.38 ± 0.01%

Q: And the viability at 2 µM (MCF-7 cells; Homo sapiens, MCF7, 48 h)?
A: 91.38 ± 0.01%

Q: And the viability at 2 µM (MCF-7 cells; Homo sapiens, MCF7, 72 h)?
A: 91.38 ± 0.01%

Q: What about the viability at 2 µM (MCF-7 cells; Homo sapiens, MCF7, 96 h) of the same compound?
A: 90.67 ± 0.01%

Q: What about the viability at 5 µM (MCF-7 cells; Homo sapiens, MCF7, 24 h) of the same compound?
A: 84.83 ± 0.01%

Q: And the viability at 5 µM (MCF-7 cells; Homo sapiens, MCF7, 48 h)?
A: 83.01 ± 0.02%

Q: And the viability at 5 µM (MCF-7 cells; Homo sapiens, MCF7, 72 h)?
A: 83.01 ± 0.02%

Q: What about the viability at 5 µM (MCF-7 cells; Homo sapiens, MCF7, 96 h) of the same compound?
A: 82.54 ± 0.01%

Q: What about the viability at 10 µM (MCF-7 cells; Homo sapiens, MCF7, 10 μM, 24 h) of the same compound?
A: 80 ± 0.01%

Q: And the viability at 10 µM (MCF-7 cells; Homo sapiens, MCF7, 10 μM, 48 h)?
A: 76.59 ± 0.01%

Q: What about the viability at 10 µM (MCF-7 cells; Homo sapiens, MCF7, 10 μM, 72 h) of the same compound?
A: 76.59 ± 0.01%

Q: What about the viability at 10 µM (MCF-7 cells; Homo sapiens, MCF7, 10 μM, 96 h) of the same compound?
A: 74.2%

Q: What about the viability at 20 µM (MCF-7 cells; Homo sapiens, MCF7, 20 μM, 24 h) of the same compound?
A: 70.25 ± 0.02%

Q: And the viability at 20 µM (MCF-7 cells; Homo sapiens, MCF7, 20 μM, 48 h)?
A: 64.29 ± 0.02%

Q: And the viability at 20 µM (MCF-7 cells; Homo sapiens, MCF7, 20 μM, 72 h)?
A: 51.2 ± 0.01%

Q: What about the viability at 20 µM (MCF-7 cells; Homo sapiens, MCF7, 20 μM, 96 h) of the same compound?
A: 40.5%

Q: And the viability at 50 µM (MCF-7 cells; Homo sapiens, MCF7, 24 h)?
A: 62.7%

Q: And the viability at 50 µM (MCF-7 cells; Homo sapiens, MCF7, 48 h)?
A: 43.4%

Q: What about the viability at 50 µM (MCF-7 cells; Homo sapiens, MCF7, 72 h) of the same compound?
A: 28%

Q: And the viability at 50 µM (MCF-7 cells; Homo sapiens, MCF7, 96 h)?
A: 18.4%

Q: What about the viability at 100 µM (MCF-7 cells; Homo sapiens, MCF7, 24 h) of the same compound?
A: 57.46 ± 0.02%

Q: And the viability at 100 µM (MCF-7 cells; Homo sapiens, MCF7, 48 h)?
A: 33.25 ± 0.02%

Q: What about the viability at 100 µM (MCF-7 cells; Homo sapiens, MCF7, 72 h) of the same compound?
A: 20.25 ± 0.01%

Q: And the viability at 100 µM (MCF-7 cells; Homo sapiens, MCF7, 96 h)?
A: 13.4%

Q: And the IC50 (MCF-7 cells; Homo sapiens, MCF7, 24 h after treatment)?
A: 121 µM

Q: And the IC50 (MCF-7 cells; Homo sapiens, MCF7, 48 h after treatment)?
A: 16.2 µM

Q: And the IC50 (MCF-7 cells; Homo sapiens, MCF7, 72 h after treatment)?
A: 17 µM

Q: What about the IC50 (MCF-7 cells; Homo sapiens, MCF7, 96 h after treatment) of the same compound?
A: 16.1 µM
